Data on five compounds can be found in ChEMBL document CHEMBL2385022, “Therapeutic and pharmacokinetic characterizations of an anti-amyloidogenic bis-styrylbenzene derivative for Alzheimer's disease treatment” (Bioorg Med Chem Lett, 2013).

Data set [1] concerns Rattus norvegicus. The experiment in a line: Acute toxicity in Sprague-Dawley rat assessed as mortality at 500 to 2000 mg/kg, po after 14 days. The class given is organism-based. Details: dose 500-2000 mg/kg, route oral. The settings on record: in vivo, 336 h.
Data set [2] relates to Mus musculus. The experiment in a line: Cognitive enhancing effect in amyloid beta (1-42) infused ICR mouse assessed as increase in alternation behavior at 30 mg/kg/day, ip administered 1 day prior to amyloid beta (1-42) infusion and continued for 6 days measured on day 6 by Y-maze test (reference value: 64.1%). The class given is functional. To be noted: route intraperitoneal.

Data set [3] relates to Rattus norvegicus. The experiment in a line: Toxicity in Sprague-Dawley rat assessed as change in body weight at 500 mg/kg, po after 5 days (reference value: 148.4 +/- 3.2 g). The data set is classed as organism-based. More on the design: dose 500 mg/kg, route oral. To be noted: in vivo, 120 h.
The test system of data set [4] is Rattus norvegicus. The experiment in a line: Toxicity in Sprague-Dawley rat assessed as change in body weight at 2000 mg/kg, po after 5 days (reference value: 148.4 +/- 3.2 g). The settings on record: in vivo, 120 h. The data set is classed as organism-based. More on the design: dose 2000 mg/kg, route oral.
The subject of data set [5] is Rattus norvegicus. The experiment in a line: Toxicity in Sprague-Dawley rat assessed as change in body weight at 500 mg/kg, po after 10 days (reference value: 175.9 +/- 5.1 g). The data set is classed as organism-based. More on the design: dose 500 mg/kg, route oral. To be noted: in vivo, 240 h.
Data set [6] relates to Rattus norvegicus. Description: Toxicity in Sprague-Dawley rat assessed as change in body weight at 1000 mg/kg, po after 10 days (reference value: 175.9 +/- 5.1 g). The class given is organism-based. More on the design: dose 1000 mg/kg, route oral. To be noted: in vivo, 240 h.
Data set [7] concerns Rattus norvegicus. Description: Toxicity in Sprague-Dawley rat assessed as change in body weight at 2000 mg/kg, po after 1 day (reference value: 130.6 +/- 4.6 g). To be noted: in vivo, 24 h. Details: dose 2000 mg/kg, route oral. The data set is classed as organism-based.
For data set [8], the system named is Rattus norvegicus. The experiment in a line: Toxicity in Sprague-Dawley rat assessed as change in body weight at 500 mg/kg, po after 14 days (reference value: 199.1 +/- 4.8 g). The data set is classed as organism-based. Details: dose 500 mg/kg, route oral. To be noted: in vivo, 336 h.
Data set [9] concerns Rattus norvegicus. Description: Toxicity in Sprague-Dawley rat assessed as change in body weight at 1000 mg/kg, po after 5 days (reference value: 148.4 +/- 3.2 g). The data set is classed as organism-based. More on the design: dose 1000 mg/kg, route oral. To be noted: in vivo, 120 h.
Data set [10] deals with Rattus norvegicus. Description: Toxicity in Sprague-Dawley rat assessed as change in body weight at 1000 mg/kg, po after 14 days (reference value: 199.1 +/- 4.8 g). The class given is organism-based. Details: dose 1000 mg/kg, route oral. The settings on record: in vivo, 336 h.
For data set [11], the target named is hERG (KCNH2) (Homo sapiens, UniProt Q12809). The experiment in a line: Inhibition of human ERG in HEK293 cells at 10 uM by patch clamp assay relative to control. The data set is classed as cell-based. The settings on record: HEK293 cells expressing human ERG.
Data set [12] deals with Rattus norvegicus. Description: Toxicity in Sprague-Dawley rat assessed as change in body weight at 1000 mg/kg, po after 1 day (reference value: 130.6 +/- 4.6 g). The data set is classed as organism-based. Details: dose 1000 mg/kg, route oral. The settings on record: in vivo, 24 h.
For data set [13], the system named is Rattus norvegicus. The experiment in a line: Toxicity in Sprague-Dawley rat assessed as change in body weight at 500 mg/kg, po after 1 day (reference value: 130.6 +/- 4.6 g). The data set is classed as organism-based. More on the design: dose 500 mg/kg, route oral. To be noted: in vivo, 24 h.
Data set [14] has as its system Rattus norvegicus. Description: Toxicity in Sprague-Dawley rat assessed as change in body weight at 2000 mg/kg, po after 14 days (reference value: 199.1 +/- 4.8 g). The class given is organism-based. Details: dose 2000 mg/kg, route oral. The settings on record: in vivo, 336 h.
Data set [15] relates to Rattus norvegicus. The experiment in a line: Toxicity in Sprague-Dawley rat assessed as change in body weight at 2000 mg/kg, po after 10 days (reference value: 175.9 +/- 5.1 g). The data set is classed as organism-based. More on the design: dose 2000 mg/kg, route oral. The settings on record: in vivo, 240 h.
In data set [16] the target is Amyloid-beta precursor protein (Homo sapiens) (UniProt P05067). The experiment in a line: Inhibition of amyloid beta (1-42) fibril aggregation (unknown origin) at 100 uM after 20 hrs by transmission electron microscopic analysis.
The nature of data set [17]: AUC (0 to 24 hrs) in ICR mouse brain at 20 mg/kg, po. The data set is classed as ADME, organism-based. More on the design: time < 24 hr, dose 20 mg/kg, route oral.
A short description of data set [18]: AUC (0 to 24 hrs) in ICR mouse brain at 10 mg/kg, iv. The data set is classed as ADME, organism-based. Details: time < 24 hr, dose 10 mg/kg, route intravenous.
Data set [19] is described as follows: Oral bioavailability in ICR mouse at 20 mg/kg. The data set is classed as ADME, organism-based. The settings on record: in vivo.
Data set [20] in a line: Half life in ICR mouse plasma at 20 mg/kg, po. The data set is classed as ADME, organism-based. Details: dose 20 mg/kg, route oral.
Data set [21] in a line: Apparent permeability from apical to basolateral side in mouse bEND.3 /rat C6 co-culture cell model after 1 hr by Transwell assay. The class given is ADME.
A short description of data set [22]: Tmax in ICR mouse brain at 20 mg/kg, po. More on the design: dose 20 mg/kg, route oral. The class given is ADME, organism-based.
A short description of data set [23]: Half life in ICR mouse plasma at 10 mg/kg, iv. Details: dose 10 mg/kg, route intravenous. The data set is classed as ADME, organism-based.
Data set [24] can be described thus: AUC (0 to 24 hrs) in ICR mouse plasma at 20 mg/kg, po. Details: time < 24 hr, dose 20 mg/kg, route oral. The class given is ADME, organism-based.
The nature of data set [25]: Tmax in ICR mouse brain at 10 mg/kg, iv. The class given is ADME, organism-based. Details: dose 10 mg/kg, route intravenous.
Data set [26] can be described thus: Cmax in ICR mouse brain at 20 mg/kg, po. The class given is ADME, organism-based. Details: dose 20 mg/kg, route oral.
Data set [27] can be described thus: Cmax in ICR mouse brain at 10 mg/kg, iv. More on the design: dose 10 mg/kg, route intravenous. The class given is ADME, organism-based.
Data set [28] concerns Mus musculus. The experiment in a line: Ratio of drug level in brain to plasma in ICR mouse at 20 mg/kg, po […]. The settings on record: in vivo.
Data set [29] in a line: Cmax in ICR mouse plasma at 20 mg/kg, po. More on the design: dose 20 mg/kg, route oral. The data set is classed as ADME, organism-based.
Data set [30] in a line: Tmax in ICR mouse plasma at 20 mg/kg, po. More on the design: dose 20 mg/kg, route oral. The data set is classed as ADME, organism-based.
The nature of data set [31]: Acute toxicity in po dosed Sprague-Dawley rat assessed as mortality after 14 days. The class given is organism-based. The settings on record: in vivo.
The nature of data set [32]: AUC (0 to 24 hrs) in ICR mouse plasma at 10 mg/kg, iv. The data set is classed as ADME, organism-based. Details: time < 24 hr, dose 10 mg/kg, route intravenous.
The nature of data set [33]: Tmax in ICR mouse plasma at 10 mg/kg, iv. The data set is classed as ADME, organism-based. More on the design: dose 10 mg/kg, route intravenous.
A short description of data set [34]: Half life in ICR mouse brain at 20 mg/kg, po. The class given is ADME, organism-based. Details: dose 20 mg/kg, route oral.
A short description of data set [35]: Cmax in ICR mouse plasma at 10 mg/kg, iv. The data set is classed as ADME, organism-based. More on the design: dose 10 mg/kg, route intravenous.
Data set [36] is described as follows: Half life in ICR mouse brain at 10 mg/kg, iv. The data set is classed as ADME, organism-based. Details: dose 10 mg/kg, route intravenous.
The subject of data set [37] is Mus musculus. The experiment in a line: Ratio of drug level in brain to plasma in ICR mouse at 10 mg/kg, iv […]. To be noted: in vivo.

Each structure is given as a SMILES string. Activity calls are given as the source filed them. The calls are words filed in the database; no cut-off is given here.

hERG (KCNH2), sequence (Q12809 whole entry): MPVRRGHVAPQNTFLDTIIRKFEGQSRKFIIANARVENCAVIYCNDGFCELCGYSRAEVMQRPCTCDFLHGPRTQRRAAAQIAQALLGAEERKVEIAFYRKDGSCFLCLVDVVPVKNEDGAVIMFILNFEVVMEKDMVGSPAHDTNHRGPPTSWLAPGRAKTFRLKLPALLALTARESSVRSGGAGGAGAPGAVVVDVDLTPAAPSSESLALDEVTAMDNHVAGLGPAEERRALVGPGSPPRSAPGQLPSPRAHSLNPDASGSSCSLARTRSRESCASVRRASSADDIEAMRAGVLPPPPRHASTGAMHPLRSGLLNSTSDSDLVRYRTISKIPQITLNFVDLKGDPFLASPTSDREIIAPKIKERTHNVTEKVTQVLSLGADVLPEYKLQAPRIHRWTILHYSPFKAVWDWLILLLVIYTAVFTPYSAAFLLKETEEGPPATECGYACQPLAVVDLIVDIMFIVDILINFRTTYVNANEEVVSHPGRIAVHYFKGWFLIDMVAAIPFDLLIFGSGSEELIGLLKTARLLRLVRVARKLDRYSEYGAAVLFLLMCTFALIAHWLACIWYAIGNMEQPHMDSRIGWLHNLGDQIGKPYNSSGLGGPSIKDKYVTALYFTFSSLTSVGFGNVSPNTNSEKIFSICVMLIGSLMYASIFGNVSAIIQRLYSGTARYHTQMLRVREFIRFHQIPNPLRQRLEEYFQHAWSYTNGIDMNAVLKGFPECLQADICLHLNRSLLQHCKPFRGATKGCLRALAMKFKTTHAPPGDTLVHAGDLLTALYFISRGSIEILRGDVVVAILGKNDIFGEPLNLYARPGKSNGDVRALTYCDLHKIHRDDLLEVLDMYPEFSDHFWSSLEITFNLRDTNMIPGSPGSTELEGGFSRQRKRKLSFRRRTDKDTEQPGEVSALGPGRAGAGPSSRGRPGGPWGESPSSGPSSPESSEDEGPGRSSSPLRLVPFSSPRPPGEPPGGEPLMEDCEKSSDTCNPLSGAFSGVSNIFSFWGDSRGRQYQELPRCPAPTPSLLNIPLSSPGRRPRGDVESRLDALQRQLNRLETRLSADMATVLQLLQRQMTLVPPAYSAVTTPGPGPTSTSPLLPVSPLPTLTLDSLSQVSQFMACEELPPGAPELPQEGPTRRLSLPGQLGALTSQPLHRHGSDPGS
Amyloid-beta precursor protein (Homo sapiens), sequence (P05067 whole entry): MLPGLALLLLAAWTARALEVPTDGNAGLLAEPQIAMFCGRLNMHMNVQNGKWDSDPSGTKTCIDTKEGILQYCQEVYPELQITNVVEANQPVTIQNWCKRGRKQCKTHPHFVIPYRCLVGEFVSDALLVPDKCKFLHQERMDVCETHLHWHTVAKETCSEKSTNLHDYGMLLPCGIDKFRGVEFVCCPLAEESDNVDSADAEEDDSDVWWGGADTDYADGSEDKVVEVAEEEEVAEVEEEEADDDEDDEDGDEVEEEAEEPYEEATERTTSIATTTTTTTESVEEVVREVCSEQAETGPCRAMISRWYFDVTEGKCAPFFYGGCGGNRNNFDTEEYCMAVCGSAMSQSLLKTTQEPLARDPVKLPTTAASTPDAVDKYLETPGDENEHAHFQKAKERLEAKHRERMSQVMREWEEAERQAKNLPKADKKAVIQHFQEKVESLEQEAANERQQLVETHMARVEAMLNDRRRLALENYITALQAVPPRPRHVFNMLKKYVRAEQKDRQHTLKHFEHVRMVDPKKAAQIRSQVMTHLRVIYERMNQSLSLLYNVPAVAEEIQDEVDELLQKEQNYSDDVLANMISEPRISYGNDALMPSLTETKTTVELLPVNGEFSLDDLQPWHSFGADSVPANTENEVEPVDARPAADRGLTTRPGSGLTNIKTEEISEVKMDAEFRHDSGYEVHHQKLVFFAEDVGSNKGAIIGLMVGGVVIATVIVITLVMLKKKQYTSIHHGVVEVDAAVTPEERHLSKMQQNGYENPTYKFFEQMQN

Consider `CNc1ccc(/C=C/c2cccc(/C=C/c3ccc(NC)c(OC)c3)c2)cc1OC`, for which, in [1], the Activity entry is “Non-toxic”.

For the compound `NCCCS(=O)(=O)O` [TRAMIPROSATE], the Activity is 67.3% in [2]; 145.3 g in data set [3]; 147.2 g in data set [4]; 167.2 g in data set [5]; 174.7 g in data set [6]; 131.4 g in [7]. Besides, the Activity in [8] came out at 188 g; in data set [9] it was 149.6 g; in [10] it was 195.4 g; in data set [12], 131.1 g; in [13], 130.7 g; in data set [14] it was 194.3 g. Moreover, the results for the Activity in [15] and in data set [1] were 171.5 g and “Non-toxic”, respectively. At 10 µM the inhibition in data set [11] was 18%.

As for `COc1cc(/C=C/C(=O)CC(=O)/C=C/c2ccc(O)c(OC)c2)ccc1O`, the inhibition result in data set [16] is “Active”.

As to `COc1cc(/C=C/c2cccc(/C=C/c3ccc(N(C)C)c(OC)c3)c2)ccc1N(C)C`, the AUC(0-t) at 24 h came out at 4530 ng·h/mL in data set [17], 8100 ng·h/mL in [18], 29200 ng·h/mL in data set [24] and 31600 ng·h/mL in data set [32]. In [19], this compound registered a bioavailability of 46.2%. Moreover, the half-life in data set [20] is 9.4 h; in data set [23] it was 7.3 h; in data set [34], 14.5 h; in [36], 6.04 h. Besides, the Activity in [2] was 70%; in [3] it was 142.6 g; in data set [4], 128.3 g; in [5], 164.1 g; in data set [6] it was 164.2 g; in [7] it was 132.4 g. The Activity in data set [8] is 183.9 g; in [9] it was 138.9 g; in data set [10], 182.2 g; in [12] it was 132 g; in data set [13], 131.5 g; in [14], 174.6 g. Moreover, in data set [15], the Activity was 157.8 g. For the same compound, the Papp A→B at 1 h in data set [21] was 670 ×10⁻⁶ cm/s. In addition, the Tmax in [22] came to 4.7 h; in data set [25], 0.4 h; in [30], 1 h; in data set [33], 4.8 min. For the same compound, the inhibition entry in data set [16] is “Active”. Also, the Cmax in data set [26] amounted to 395 ng/mL; in [27], 1410 ng/mL; in data set [29] it was 3490 ng/mL; in data set [35], 13100 ng/mL. The Drug uptake in data set [28] turned out to be 15%; in [37] it was 26%. Further, the LD50 at 336 h in [31] was > 2000 mg/kg. This compound also showed an inhibition at 10 µM in [11] of 14%.

Turning to `COC(=O)c1ccccc1-c1c2ccc(=N)cc-2oc2cc(N)ccc12.Cl` [RHODAMINE123], in data set [21], the Papp A→B at 1 h amounted to 32 ×10⁻⁶ cm/s.
